What follows are molecules tested against T1, Menin (Homo sapiens, UniProt O00255) (assay: Fluorescence Polarization (FP) Assay).
T1 sequence (O00255 whole entry): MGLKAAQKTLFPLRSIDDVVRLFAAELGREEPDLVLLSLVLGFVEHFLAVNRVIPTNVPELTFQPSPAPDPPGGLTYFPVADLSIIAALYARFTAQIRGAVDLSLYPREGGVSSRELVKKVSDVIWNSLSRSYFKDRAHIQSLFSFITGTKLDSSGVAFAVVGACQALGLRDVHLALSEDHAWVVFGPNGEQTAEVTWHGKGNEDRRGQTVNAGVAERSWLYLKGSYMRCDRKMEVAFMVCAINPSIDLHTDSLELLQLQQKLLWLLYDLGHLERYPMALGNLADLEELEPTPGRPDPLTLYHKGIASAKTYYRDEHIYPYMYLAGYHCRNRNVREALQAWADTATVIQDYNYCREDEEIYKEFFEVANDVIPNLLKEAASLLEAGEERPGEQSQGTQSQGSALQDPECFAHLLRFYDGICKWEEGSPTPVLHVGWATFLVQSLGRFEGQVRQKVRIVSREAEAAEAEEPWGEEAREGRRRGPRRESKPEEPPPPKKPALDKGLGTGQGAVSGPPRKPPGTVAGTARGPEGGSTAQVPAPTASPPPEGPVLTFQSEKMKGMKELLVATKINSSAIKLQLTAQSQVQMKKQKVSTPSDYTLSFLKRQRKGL
Description: Compounds were tested in a biochemical binding assay using Menin protein at 2 nM (N6his-tev-Menin_4i80, PB-20-1459) and the substrate cRho110-Ahx-MBM1/MBM2 peptide (UbiQ, UbiQ-Q20201030; cRh110-Ahx-[…]-QRVPALLLPPG-NH2) at 1 nM.384 Low volume black plates (Corning #4514) were used. 5 μL/well compound or 3% DMSO was added at 10-fold serial dilutions in DMSO from 10 μM. 5 μL/well cRho110-Ahx-MBM1/MBM2 peptide or binding buffer (50 mM Tris pH 7.5, 50 mM NaCl, 1 mM TCEP, 0.01% BGG, 0.01% Brij-35) was added to all wells. 5 μL/well Menin protein or binding buffer (50 mM Tris pH 7.5, 50 mM NaCl, 1 mM TCEP, 0.01% BGG, 0.01% Brij-35) was added to all wells. Plates were read on an EnVision plate reader (Perkin Elmer) with excitation at 480 nm and emission at 535 nm P+S, and measured every 5 minutes for 180 minutes.

| IC50 | SMILES |
| --- | --- |
| 7 nM | COCCN(C)CCC[C@H](C(C)C)N1CCC(C(=O)c2cn(-c3ccc(F)cc3C(=O)N(C(C)C)C(C)C)c3cnccc23)CC1 (racemic) [US20240335431, Example 23] |
| 27 nM | CC(C)N(C(=O)c1cc(F)ccc1-n1cc(C(=O)C2CCN(C(=O)[C@H]3NC[C@@H]4CC[C@@H]43)CC2)c2ccncc21)C(C)C (relative stereo) [US20240335431, Example 25] |
| 36 nM | CC(C)N(C(=O)c1cc(F)ccc1-n1cc(C(=O)[C@@H]2CCCN(C(=O)[C@H]3N[C@@H]4CC[C@H]3C4)CC2)c2ccncc21)C(C)C (relative stereo) [US20240335431, Example 45] |
| 2140 nM | CCN(C(=O)c1cc(F)ccc1-n1c(C)c(C(=O)C2CCN(C(=O)[C@@H]3CCC4(CC4)N3)CC2)c2ccncc21)C(C)C (single isomer, unassigned) [US20240335431, Example 49-1] |
| 5500 nM | CCN(C(=O)c1cc(F)ccc1-n1c(C)c(C(=O)C2CCN(C(=O)[C@@H]3CCC(C)(C)N3)CC2)c2ccncc21)C(C)C (single isomer, unassigned) [US20240335431, Example 50-1] |
| 778 nM | Cc1c(C(=O)C2CCN(C(=O)[C@H]3NC[C@@H]4C[C@@H]43)CC2)c2ccncc2n1-c1ccc(F)cc1C(=O)N(CC(F)(F)F)C(C)C (single isomer, unassigned) [US20240335431, Example 51-1] |
| 1340 nM | Cc1c(C(=O)C2CCN(C(=O)[C@H]3NC[C@@H]4C[C@@H]43)CC2)c2ccncc2n1-c1ccc(F)cc1C(=O)N(C(C)C)C(C)C (single isomer, unassigned) [US20240335431, Example 55-1] |
| 2150 nM | Cc1c(C(=O)C2CCN(C(=O)[C@@H]3CCC(C)(C)N3)CC2)c2ccncc2n1-c1ccc(F)cc1C(=O)N(C(C)C)C(C)C (single isomer, unassigned) [US20240335431, Example 56-1] |
| 33 nM | Cc1c(C(=O)C2CCN(C(=O)[C@H]3NC[C@@H]4C[C@@H]43)CC2)c2ccncc2n1-c1ccc(F)cc1C(=O)N(C(C)C)[C@H](C)C(F)(F)F (single isomer, unassigned) [US20240335431, Example 57-1] |
| 351 nM | Cc1c(C(=O)C2CCN(C(=O)[C@@H]3CCC4(CC4)N3)CC2)c2ccncc2n1-c1ccc(F)cc1C(=O)N1[C@H](C)COC[C@H]1C (single isomer, unassigned) [US20240335431, Example 58-1] |
| 16 nM | CCN(C(=O)c1cc(F)ccc1-n1c(C)c(C(=O)[C@@H]2CCN(C(=O)[C@@H]3CCC4(CC4)N3)[C@@H](C)C2)c2ccncc21)C(C)C (single isomer, unassigned; form 1) [US20240335431, Example 52-1] |
| 18 nM | CCN(C(=O)c1cc(F)ccc1-n1c(C)c(C(=O)[C@@H]2CCN(C(=O)[C@@H]3CCC4(CC4)N3)[C@@H](C)C2)c2ccncc21)C(C)C (single isomer, unassigned; form 2) [US20240335431, Example 52-2] |
| 29 nM | CC(C)N(C(=O)c1cc(F)ccc1-n1cc(C(=O)[C@H]2CCN(C[C@H]3CC[C@H](NS(C)(=O)=O)CC3)C2)c2ccncc21)C(C)C [US20240335431, Example 1] |
| 47 nM | CC(C)N(C(=O)c1cc(F)ccc1-n1cc(C(=O)[C@H]2CCN(C(=O)[C@H]3N[C@@H]4CC[C@H]3C4)C2)c2ccncc21)C(C)C [US20240335431, Example 2] |
| 25 nM | CC(C)N(C(=O)c1cc(F)ccc1-n1cc(C(=O)[C@@H]2CCN(C(=O)[C@H]3N[C@@H]4CC[C@H]3C4)C2)c2ccncc21)C(C)C [US20240335431, Example 3] |
| 54 nM | CC(C)N(C(=O)c1cc(F)ccc1-n1cc(C(=O)[C@@H]2CCN(C[C@H]3CC[C@H](NS(C)(=O)=O)CC3)C2)c2ccncc21)C(C)C [US20240335431, Example 4] |
| 18 nM | CC(C)N(C(=O)c1cc(F)ccc1-n1cc(C(=O)C2CN(C(=O)[C@H]3N[C@@H]4CC[C@H]3C4)C2)c2ccncc21)C(C)C [US20240335431, Example 5] |
| 42 nM | CC(C)N(C(=O)c1cc(F)ccc1-n1cc(C(=O)C2CN(C(=O)[C@H]3NC4CCC3CC4)C2)c2ccncc21)C(C)C [US20240335431, Example 6] |
| 24 nM | CC(C)N(C(=O)c1cc(F)ccc1-n1cc(C(=O)C2CN(C(=O)[C@H]3N[C@H]4C[C@@H]3[C@@H](F)C4)C2)c2ccncc21)C(C)C [US20240335431, Example 7] |
| 27 nM | CCN(C(=O)c1cc(F)ccc1-n1cc(C(=O)C2CN(C(=O)[C@H]3N[C@@H]4CC[C@H]3C4)C2)c2ccncc21)C(C)C [US20240335431, Example 8] |

| IC50 | SMILES |
| --- | --- |
| 51 nM | CCN(C(=O)c1cc(F)ccc1-n1cc(C(=O)C2CN(C(=O)[C@H]3NC4CCC3CC4)C2)c2ccncc21)C(C)C [US20240335431, Example 9] |
| 4 nM | CC(C)c1ncccc1-c1cc(F)ccc1-n1cc(C(=O)C2CN(C(=O)[C@H]3N[C@@H]4CC[C@H]3C4)C2)c2ccncc21 [US20240335431, Example 10] |
| 4 nM | CC(C)c1cnccc1-c1cc(F)ccc1-n1cc(C(=O)C2CN(C(=O)[C@H]3N[C@@H]4CC[C@H]3C4)C2)c2ccncc21 [US20240335431, Example 11] |
| 6 nM | CC(C)c1ncsc1-c1cc(F)ccc1-n1cc(C(=O)C2CN(C(=O)[C@H]3N[C@@H]4CC[C@H]3C4)C2)c2ccncc21 [US20240335431, Example 12] |
| 4 nM | CC(C)(F)c1ncccc1-c1cc(F)ccc1-n1cc(C(=O)C2CN(C(=O)[C@H]3N[C@@H]4CC[C@H]3C4)C2)c2ccncc21 [US20240335431, Example 13] |
| 139 nM | CC(C)N(C(=O)c1cc(F)ccc1-n1cc(C(=O)C2CN(C(=O)[C@H]3N[C@@H]4CC[C@H]3C4)C2)c2ccnnc21)C(C)C [US20240335431, Example 14] |
| 17 nM | CC(C)N(C(=O)c1cc(F)ccc1-n1cc(C(=O)C2CN(C(=O)[C@H]3N[C@@H]4CC[C@H]3C4)C2)c2ccnc(F)c21)C(C)C [US20240335431, Example 15] |
| 21 nM | CC(C)N(C(=O)c1cc(F)ccc1-n1cc(C(=O)C2CCN(C(=O)[C@H]3N[C@@H]4CC[C@H]3C4)CC2)c2ccncc21)C(C)C [US20240335431, Example 16] |
| 21 nM | CC(C)N(C(=O)c1cc(F)ccc1-n1cc(C(=O)C2CCN(C[C@H]3CC[C@H](NS(C)(=O)=O)CC3)CC2)c2ccncc21)C(C)C [US20240335431, Example 17] |
| 37 nM | C=C1C[C@@H]2CC[C@H]1[C@@H](C(=O)N1CCC(C(=O)c3cn(-c4ccc(F)cc4C(=O)N(C(C)C)C(C)C)c4cnccc34)CC1)N2 [US20240335431, Example 18] |
| 16 nM | CC(C)N(C(=O)c1cc(F)ccc1-n1cc(C(=O)C2CCN(C(=O)[C@H]3NC[C@@H]4C[C@@H]43)CC2)c2ccncc21)C(C)C [US20240335431, Example 19] |
| 16 nM | CC(C)N(C(=O)c1cc(F)ccc1-n1cc(C(=O)C2CCN(C(=O)[C@H]3NC[C@@H]4CCC[C@@H]43)CC2)c2ccncc21)C(C)C [US20240335431, Example 21] |
| 25 nM | CC(C)N(C(=O)c1cc(F)ccc1-n1cc(C(=O)C2CCN(C(=O)[C@H]3N[C@H]4C[C@@H]3[C@@H](F)C4)CC2)c2ccncc21)C(C)C [US20240335431, Example 22] |
| 19 nM | CC(C)N(C(=O)c1cc(F)ccc1-n1cc(C(=O)C2CCN(C(=O)[C@@H]3CCC4(CC4)N3)CC2)c2ccncc21)C(C)C [US20240335431, Example 24] |
| 43 nM | CC(C)N(C(=O)c1cc(F)ccc1-n1cc(C(=O)C2CCN(C(=O)[C@@H]3CC4(CC4)CN3)CC2)c2ccncc21)C(C)C [US20240335431, Example 26] |
| 25 nM | CC(C)N(C(=O)c1cc(F)ccc1-n1cc(C(=O)C2CCN(C(=O)[C@@H]3CCC(C)(C)N3)CC2)c2ccncc21)C(C)C [US20240335431, Example 27] |
| 17 nM | CCN(C(=O)c1cc(F)ccc1-n1cc(C(=O)C2CCN(C(=O)[C@H]3N[C@H]4C[C@@H]3[C@@H](F)C4)CC2)c2ccncc21)C(C)C [US20240335431, Example 30] |
| 10 nM | CCN(C(=O)c1cc(F)ccc1-n1cc(C(=O)C2CCN(C(=O)[C@H]3N[C@@H]4CC[C@H]3C4)CC2)c2ccncc21)C(C)C [US20240335431, Example 31] |
| 36 nM | C[C@@H]1CC[C@H](C)N1C(=O)c1cc(F)ccc1-n1cc(C(=O)C2CCN(C(=O)[C@H]3N[C@@H]4CC[C@H]3C4)CC2)c2ccncc21 [US20240335431, Example 32] |
| 37 nM | C[C@@H]1CCC[C@H](C)N1C(=O)c1cc(F)ccc1-n1cc(C(=O)C2CCN(C(=O)[C@H]3N[C@@H]4CC[C@H]3C4)CC2)c2ccncc21 [US20240335431, Example 33] |

From BindingDB's records for patent US20240335431 (Acerta Pharma, 2024)
